# Laboratory results published in patent publication US12514843B2, “Biofilm disruption” (QBIOTICS PTY LTD, priority 2019, dated 2026).
# What was measured:
# E. coli IR57 biofilm = experiment: Disruption of established in vitro biofilm, CLSM with COMSTAT image analysis; assay type: cell-based, Escherichia coli; settings: E. coli IR57 24 h biofilm, 256 μg/mL, further 24 h; vs untreated and ethanol blank controls
# Method: The effects of administration of Compounds 1, 4 and 6 and comparator compound CC-1 on disruption of established in vitro biofilms of Escherichia coli (E. coli) was investigated using methods described in Powell et al. (2018).
# (§1) Biofilms of E. coli IR57 were grown on 96-well glass-bottomed plates in Mueller-Hinton (MH) broth for 24 h, before 50% of the supernatant was replaced with fresh MH broth with or without the epoxytiglienone compound added to a final concentration of 256 μg/mL (vehicle is ethanol). An ethanol equivalent blank was used as a further control treatment. The plates were then incubated for a further 24 h at 37° C.
# (§2) Confocal laser scanning microscopy (CLSM) was then used to image the biofilms, following staining with Live/Dead® Baclight stain with phosphate buffered saline (PBS) added to each well before imaging with z-stack CLSM. The resultant images were analysed by COMSTAT software to produce measurements of (i) biofilm biomass volume or bio-volume (μm^3/μm^2) and (ii) DEAD/LIVE bacterial ratio.
# [1] = tested on: P. aeruginosa PAO1 biofilm; experiment: as above; assay type: cell-based, Pseudomonas aeruginosa; settings: 256 μg/mL
# Method: as §1, §2
# The effects of the epoxytiglienones (Compounds 1, 4, 6 and the comparator compound CC-1) on disruption of established in vitro biofilms were further investigated with two other species of Gram-negative bacteria (Pseudomonas aeruginosa PA01 and Acinetobacter baumannii 7789) using methods described in Example 2 above. Cell permeabilisation following Compound 1, 4 and 6 treatment was also determined using SYTOX™ Green Nucleic Acid Stain with untreated control and positive control of 70% isopropanol.
# [2] = tested on: isolated human neutrophils; experiment: NETosis/necrosis assay, Hoescht/Sytox Green fluorescence; assay type: cell-based
# Method: For these assays, neutrophils were isolated from fresh blood of a healthy human donor by lysis of a red blood cell pellet that had been obtained by Ficoll-Paque sedimentation. The neutrophils (˜4×10^6 cells/mL) were incubated with 10 μg/mL dihydroethidium (DHE) (Sigma-Aldrich) in complete culture medium at 37° C. for 15 min alongside an aliquot of unstained cells to be tested as unstained control.
# NETosis/necrosis assays followed methods fully described by Brinkmann et al. 2010. Isolated neutrophils were plated into 96-well plates (RPMI1640, 10% FCS) and incubated with a 1:50,000 dilution of Hoescht (10 mg/mL) and Sytox® Green (5 mM). Compound 4 was added at six concentrations (0.005, 0.05, 0.5. 5, 50, 500 μM) and the cells incubated at 37° C., 5% CO2. Vehicle treated controls were included in all assays and there were three replicates of each assay. Hoescht/Sytox® Green fluorescence images were recorded for each well at 3 and 6 hours.
# Streptococcus pyogenes = experiment: Minimum inhibitory concentration (MIC) assay, planktonic culture, broth dilution; assay type: cell-based; set-up: key: C = confluent growth, i.e. no MIC could be determined at any concentration tested; settings: S. pyogenes, planktonic culture in Mueller-Hinton broth; mean of three replicate tests
# Method: (§3) The effects of five epoxytiglienones (Compounds 1, 2, 3, 4 and 6) and two comparator comparator compounds (epoxytiglienones having longer carbon chains at the C12 position) on six human pathogenic bacteria (two Gram-positive and four Gram-negative species) were measured in conventional planktonic culture systems. A minimum inhibitory concentrations (MIC) assay (the standard assay employed to define and quantify antibiotic activity) was performed to determine antibacterial activity for each epoxytiglienone against each bacterial strain.
# (§4) The Gram-positive bacteria used in this study were methicillin resistant Staphylococcus aureus (MRSA) 1004A and Streptococcus pyogenes. The Gram-negative bacteria used in this study were Pseudomonas aeruginosa PAO1, Escherichia coli IR57 (V7), Klebsiella pneumoniae, and Acinetobacter baumannii 7789 (V19). MIC assays were performed on planktonic cultures of each bacteria grown in Mueller-Hinton broth using the standard broth dilution method described by Jorgensen et al. (1999) using epoxytiglienones dissolved in ethanol.
# [3] = tested on: Pseudomonas aeruginosa PAO1; experiment: as above; assay type: cell-based; set-up: key: C = confluent growth, i.e. no MIC could be determined at any concentration tested; settings: P. aeruginosa, planktonic culture in Mueller-Hinton broth; mean of three replicate tests
# Method: as §3, §4
# [4] = tested on: Acinetobacter baumannii 7789 (V19); experiment: as above; assay type: cell-based; set-up: key: C = confluent growth, i.e. no MIC could be determined at any concentration tested; settings: A. baumannii, planktonic culture in Mueller-Hinton broth; mean of three replicate tests
# Method: as §3, §4
# [5] = tested on: methicillin resistant Staphylococcus aureus (MRSA) 1004A; experiment: as above; assay type: cell-based; set-up: key: C = confluent growth, i.e. no MIC could be determined at any concentration tested; settings: S. aureus, planktonic culture in Mueller-Hinton broth; mean of three replicate tests
# Method: as §3, §4
# [6] = tested on: Escherichia coli IR57 (V7); experiment: as above; assay type: cell-based; set-up: key: C = confluent growth, i.e. no MIC could be determined at any concentration tested; settings: E. coli, planktonic culture in Mueller-Hinton broth; mean of three replicate tests
# Method: as §3, §4
# Klebsiella pneumoniae = experiment: as above; assay type: cell-based; set-up: key: C = confluent growth, i.e. no MIC could be determined at any concentration tested; settings: K. pneumoniae, planktonic culture in Mueller-Hinton broth; mean of three replicate tests
# Method: as §3, §4
structure (smiles),measurement,setting,value
"CCCCCC(=O)OC1C(C)C2(O)C(C3OC3(CO)C(O)C3(O)C(=O)C(C)=CC32)C2C(C)(C)C12OC(=O)CCCCC (stereo not drawn) [Compound 4, 12,13-dihexanoyl-6,7-epoxy-4,5,9,12,13,20-hexahydroxy-1-tiglien-3-one]",biofilm bio-volume (COMSTAT),E. coli IR57 biofilm,Decreases in bio-volume were evident
same,distribution and density of bacteria in the biofilm (CLSM),E. coli IR57 biofilm,significant changes
same,biofilm distribution (CLSM),[1]; compared to other treatments,significant effect
same,biofilm bio-volume (COMSTAT),[1]; compared to other treatments (P<0.05),significant effect
same,DEAD/LIVE bacterial ratio,[1]; vs untreated and ethanol blank controls,no significant differences
same,chromatin appearance in neutrophils (more diffuse),[2]; 50 μM,NETosis has occurred
same,chromatin appearance in neutrophils (condensed),[2]; 500 μM,necrosis has occurred
same,NETosis and necrosis of neutrophils,"[2]; 3 hours after treatment, 50 μM and 500 μM",initially observed
same,NETosis and necrosis of neutrophils,"[2]; 6 hours, four lower concentrations 0.005 μM-5 μM",evident
same,Minimum inhibitory concentrations,Streptococcus pyogenes,256 µg/mL
same,Minimum inhibitory concentrations,[3],C
same,Minimum inhibitory concentrations,[4],C
same,Minimum inhibitory concentrations,[5],512 µg/mL
same,Minimum inhibitory concentrations,[6],C
same,Minimum inhibitory concentrations,Klebsiella pneumoniae,C
